For 39 compounds, inhibition results are on record in patent US8865910B2 (priority 2010, dated 2014).

Like-named read-outs stand apart in the source and are kept apart here.

This test has as its system M. bovis BCG. Nature of the test: microbe, parasite or virus in culture. It counts as cell-based, Mycobacterium bovis BCG. The note with it: Mycobacterium tuberculosis variant bovis BCG, BCG, 192 h.
Setting [1] is: read-out: Antimycobacterial activity % inhibition at 100 μg/ml Aerobic/Active stage.
Where [2] appears, read: read-out: Antimycobacterial activity % inhibition at 100 μg/ml Anearobic/Dormant stage.

As to `c1ccc(Cn2cc(CSc3ncn[nH]3)nn2)cc1` [1a], the inhibition at 100 µg/mL runs as follows: under setting [1], 3%; under setting [2], 4%.
Regarding `Cc1n[nH]c(SCc2cn(Cc3ccccc3)nn2)n1` [1b], the inhibition at 100 µg/mL under setting [1] came to 10% and the inhibition at 100 µg/mL under setting [2] stood at 14%.
In the same order, the values of `CC(C)(C)c1n[nH]c(SCc2cn(Cc3ccccc3)nn2)n1` [1c] are 3% and 11%.
Take `Cc1nc(SCc2cn(Cc3ccccc3)nn2)nn1Cc1cn(Cc2ccccc2)nn1` [2b, 1-benzyl-4-((1-((1-benzyl-1H-1,2,3-triazol-4-yl)methyl)-5-methyl-1H-1,2,4-triazol-3-ylthio)methyl)-1H-1,2,3-triazole]: the inhibition at 100 µg/mL came to 8% under setting [1] and 12% under setting [2].
Regarding `CC(C)(C)c1nc(SCc2cn(Cc3ccccc3)nn2)nn1Cc1cn(Cc2ccccc2)nn1` [2c, 1-benzyl-4-((1-((1-benzyl-1H-1,2,3-triazol-4-yl)methyl)-5-tert-butyl-1H-1,2,4-triazol-3-ylthio)methyl)-1H-1,2,3-triazole], the inhibition at 100 µg/mL was determined as 8% under setting [1] and 15% under setting [2].
The matching figures for `COc1ccc(-c2nc(SCc3cn(Cc4ccccc4)nn3)nn2Cc2cn(Cc3ccccc3)nn2)cc1` [2e, 1-benzyl-4-((1-((1-benzyl-1H-1,2,3-triazol-4-yl)methyl)-5-(4-methoxyphenyl)-1H-1,2,4-triazol-3-ylthio)methyl)-1H-1,2,3-triazole]: 1% and 8%.
The matching figures for `Clc1ccc(-c2nc(SCc3cn(Cc4ccccc4)nn3)nn2Cc2cn(Cc3ccccc3)nn2)cc1` [2f, 1-benzyl-4-((1-((1-benzyl-1H-1,2,3-triazol-4-yl)methyl)-5-(4-chlorophenyl)-1H-1,2,4-triazol-3-ylthio)methyl)-1H-1,2,3-triazole]: 21% and 17%.
For `c1ccc(Cn2cc(CSc3ncnn3Cc3cn(Cc4ccccc4)nn3)nn2)cc1` [3a, 1-benzyl-4-((1-((1-benzyl-1H-1,2,3-triazol-4-yl)methyl)-1H-1,2,4-triazol-5-ylthio)methyl)-1H-1,2,3-triazole], the inhibition at 100 µg/mL under setting [1] stood at 8% and the inhibition at 100 µg/mL under setting [2] was 3%.
In the same order, the values of `Cc1nc(SCc2cn(Cc3ccccc3)nn2)n(Cc2cn(Cc3ccccc3)nn2)n1` [3b, 1-benzyl-4-((1-((1-benzyl-1H-1,2,3-triazol-4-yl)methyl)-3-methyl-1H-1,2,4-triazol-5-ylthio)methyl)-1H-1,2,3-triazole] are 85% and 76%.
For the compound `CC(C)(C)c1nc(SCc2cn(Cc3ccccc3)nn2)n(Cc2cn(Cc3ccccc3)nn2)n1` [3c, 1-benzyl-4-((1-((1-benzyl-1H-1,2,3-triazol-4-yl)methyl)-3-tert-butyl-1H-1,2,4-triazol-5-ylthio)methyl)-1H-1,2,3-triazole], the inhibition at 100 µg/mL runs as follows: under setting [1], 10%; under setting [2], 13%.
For `O=[N+]([O-])c1ccc(-c2nc(SCc3cn(Cc4ccccc4)nn3)n(Cc3cn(Cc4ccccc4)nn3)n2)cc1` [3d, 1-benzyl-4-((1-((1-benzyl-1H-1,2,3-triazol-4-yl)methyl)-3-(4-nitrophenyl)-1H-1,2,4-triazol-5-ylthio)methyl)-1H-1,2,3-triazole], the inhibition at 100 µg/mL is, setting by setting: under setting [1], 13%; under setting [2], 11%.
In the case of `COc1ccc(-c2nc(SCc3cn(Cc4ccccc4)nn3)n(Cc3cn(Cc4ccccc4)nn3)n2)cc1` [3e, 1-benzyl-4-((1-((1-benzyl-1H-1,2,3-triazol-4-yl)methyl)-3-(4-methoxyphenyl)-1H-1,2,4-triazol-5-ylthio)methyl)-1H-1,2,3-triazole], the inhibition at 100 µg/mL is 86% under setting [1] and 82% under setting [2].
The matching figures for `Clc1ccc(-c2nc(SCc3cn(Cc4ccccc4)nn3)n(Cc3cn(Cc4ccccc4)nn3)n2)cc1` [3f, 1-benzyl-4-((1-((1-benzyl-1H-1,2,3-triazol-4-yl)methyl)-3-(4-chlorophenyl)-1H-1,2,4-triazol-5-ylthio)methyl)-1H-1,2,3-triazole]: 31% and 4%.
Consider `C=CCSc1nc[nH]n1` [4a, 3-allylthio-1H 1,2,4 triazole], for which the inhibition at 100 µg/mL reads like this: under setting [1], 51%; under setting [2], 32%.
With `C=CCSc1nc(C)n[nH]1` [4b, 3-(allylthio)-5-methyl-1H-1,2,4-triazole], the inhibition at 100 µg/mL is 98% under setting [1] and 97% under setting [2].
Take `C=CCSc1nc(C(C)(C)C)n[nH]1` [4c, 3-(allylthio)-5-tert-butyl-1H-1,2,4-triazole]: the inhibition at 100 µg/mL under setting [1] stood at 57% and the inhibition at 100 µg/mL under setting [2] stood at 39%.
In the same order, the values of `C=CCSc1nc(-c2ccc([N+](=O)[O-])cc2)n[nH]1` [4d, 3-(allylthio)-5-(4-nitrophenyl)-1H-1,2,4-triazole] are 25% and 14%.
With `C=CCSc1n[nH]c(-c2ccc(OC)cc2)n1` [4e, 3-(allylthio)-5-(4-methoxyphenyl)-1H-1,2,4-triazole], the inhibition at 100 µg/mL is, setting by setting: under setting [1], 94%; under setting [2], 93%.
`C=CCSc1ncn(CC=C)n1` [5a, 1-allyl-3-(allylthio)-1H-1,2,4-triazole]: the inhibition at 100 µg/mL came to 58% under setting [1] and 42% under setting [2].
The matching figures for `C=CCSc1nc(C)n(CC=C)n1` [5b, 1-allyl-3-(allylthio)-5-methyl-1H-1,2,4-triazole]: 25% and 15%.
As to `C=CCSc1nc(C(C)(C)C)n(CC=C)n1` [5c, 1-allyl-3-(allylthio)-5-tert-butyl-1H-1,2,4-triazole], the inhibition at 100 µg/mL under setting [1] was determined as 45% and the inhibition at 100 µg/mL under setting [2] was found to be 36%.
With `C=CCSc1nc(-c2ccc([N+](=O)[O-])cc2)n(CC=C)n1` [5d, 1-allyl-3-(allylthio)-5-(4-nitrophenyl)-1H-1,2,4-triazole], the inhibition at 100 µg/mL came to 15% under setting [1] and 18% under setting [2].
In the same order, the values of `C=CCSc1nc(-c2ccc(OC)cc2)n(CC=C)n1` [5e, 1-allyl-3-(allylthio)-5-(4-methoxyphenyl)-1H-1,2,4-triazole] are 89% and 84%.
With `C=CCSc1nc(-c2ccc(Cl)cc2)n(CC=C)n1` [5f, 1-allyl-3-(allylthio)-5-(4-chlorophenyl)-1H-1,2,4-triazole], the inhibition at 100 µg/mL runs as follows: under setting [1], 94%; under setting [2], 91%.
In the same order, the values of `C=CCSc1ncnn1CC=C` [6a, 1-allyl-5-(allylthio)-1H-1,2,4-triazole] are 65% and 60%.
The matching figures for `C=CCSc1nc(C)nn1CC=C` [6b, 1-allyl-5-(allylthio)-3-methyl-1H-1,2,4-triazole]: 22% and 10%.
In the same order, the values of `C=CCSc1nc(C(C)(C)C)nn1CC=C` [6c, 1-allyl-5-(allylthio)-3-tert-butyl-1H-1,2,4-triazole] are 30% and 33%.
Regarding `C=CCSc1nc(-c2ccc([N+](=O)[O-])cc2)nn1CC=C` [6d, 1-allyl-5-(allylthio)-3-(4-nitrophenyl)-1H-1,2,4-triazole], the inhibition at 100 µg/mL came to 40% under setting [1] and 12% under setting [2].
In the same order, the values of `C=CCSc1nc(-c2ccc(OC)cc2)nn1CC=C` [6e, 1-allyl-5-(allylthio)-3-(4-methoxyphenyl)-1H-1,2,4-triazole] are 88% and 83%.
The matching figures for `C=CCSc1nc(-c2ccc(Cl)cc2)nn1CC=C` [6f, 1-allyl-5-(allylthio)-3-(4-chlorophenyl)-1H-1,2,4-triazole]: 26% and 14%.
Consider `C#CCS(=O)(=O)c1nc[nH]n1` [7a, 5-(prop-2-ynylsulfonyl)-1H-1,2,4-triazole], for which the inhibition at 100 µg/mL under setting [1] was 42% and the inhibition at 100 µg/mL under setting [2] amounted to 23%.
In the same order, the values of `C#CCS(=O)(=O)c1n[nH]c(C)n1` [7b, 3-methyl-5-(prop-2-ynylsulfonyl)-1H-1,2,4-triazole] are 92% and 82%.
The matching figures for `C#CCS(=O)(=O)c1nc(C(C)(C)C)n[nH]1` [7c, 3-tert-butyl-5-(prop-2-ynylsulfonyl)-1H-1,2,4-triazole]: 76% and 74%.
In the same order, the values of `C#CCS(=O)(=O)c1n[nH]c(-c2ccc([N+](=O)[O-])cc2)n1` [7d, 3-(4-nitrophenyl)-5-(prop-2-ynylsulfonyl)-1H-1,2,4-triazole] are 96% and 91%.
As for `C#CCS(=O)(=O)c1n[nH]c(-c2ccc(OC)cc2)n1` [7e, 3-(4-methoxyphenyl)-5-(prop-2-ynylsulfonyl)-1H-1,2,4-triazole], the inhibition at 100 µg/mL stood at 88% under setting [1] and 82% under setting [2].
In the same order, the values of `C#CCS(=O)(=O)c1n[nH]c(-c2ccc(Cl)cc2)n1` [7f, 3-(4-chlorophenyl)-5-(prop-2-ynylsulfonyl)-1H-1,2,4-triazole] are 88% and 86%.
As to `C#CCSc1nc(C(C)(C)C)nn1CC=C` [8a, 1-allyl-3-tert-butyl-5-(prop-2-ynylthio)-1H-1,2,4-triazole], the inhibition at 100 µg/mL reads like this: under setting [1], 76%; under setting [2], 74%.
In the same order, the values of `C#CCSc1nc(C(C)(C)C)n(CC=C)n1` [8b, 1-allyl-5-tert-butyl-3-(prop-2-ynylthio)-1H-1,2,4-triazole] are 96% and 91%.
The matching figures for `C#CCn1nc(C(C)(C)C)nc1SCC=C` [8c, 5-(allylthio)-3-tert-butyl-1-(prop-2-ynyl)-1H-1,2,4-triazole]: 98% and 79%.
